# Source: US7875601B2, “Cancer treatment with epothilones” (Novartis AG, priority 1998, dated 2011)
# “And” between values parts separate entries of the source, which are not always exact repeats. Equal values may be shown once. “Also recorded” adds a separate entry of the source. Read-outs that look alike come from different tables or passages of the source.
# How the values were obtained:
# Assay type in all cases: in vivo, female BALB/c nude mice
# [1] = system: human HCT-15 colon carcinoma; test: Antitumor effect against s.c. transplanted HCT-15 tumors
# From the text: Human colorectal adenocarcinoma cell line HCT-15 (ATCC CCL 225) is from the American Type Culture Collection (Rockville, Md., USA), and the cells are cultivated in vitro as recommended by the supplier. HCT-15 is an epithelial-like cell line. (Cancer Res. 39: 1020-25 [1979]) that is multi-drug resistant by virtue of over-expression of P-glycoprotein (P-gp, gp170, MDR-1;Anticancer Res. 11: 1309-12 [1991]; J. Biol. Chem. 264: 18031-40 [1989]; Int. J. Cancer 1991; 49: 696-703 [1991]) and glutathione-dependent resistance mechanisms (Int. J. Cancer 1991; 49: 688-95 [1991]).
# (§1) Female or male BALB/c nu/nu (nude) mice are kept under sterile conditions (10 to 12 mice per Type III cage) with free access to food and water. Mice weigh between 20 and 25 grams at the time of tumor implantation. Tumors are established by subcutaneous injection of cells (minimum 2×10^6 cells in 100 μl PBS or medium) in carrier mice (4-8 mice per cell line). The resulting tumors are serially passaged for a minimum of three consecutive transplantations prior to start of treatment. Tumor fragments (approx. 25 mg) are implanted s.c. into the left flank of animals with a 13-gauge trocar needle while the mice are exposed to Forene (Abbott, Switzerland) anesthesia.
# (§2) Tumor growth and body weights are monitored once or twice weekly. All treatments are administered intravenously (i.v.) and are initiated when a mean tumor volume of approximately 100 to 250 mm^3 is attained, depending upon the tumor type. Tumor volumes are determined using the formula […] (see Cancer Chemother. Pharmacol. 24:148-154, [1989]). Treatments with epothilone B vary the dose and the frequency of administration. Comparator agents are administered according to previously determined optimal treatment regimens. In addition to presenting changes in tumor volumes over the course of treatment, antitumor activity is expressed as T/C % (mean increase of tumor volumes of treated animals divided by the mean increase of tumor volumes of control animals multiplied by 100). Tumor. regression (%) represents the smallest mean tumor volume compared to the mean tumor volume at the start of treatment, according to the formula Regression (%)=(1−Vend/Vstart)×100(Vend=final mean tumor volume, Vstart=mean tumor volume at the start of treatment. Any animals in which the tumor has reached a size exceeding approximately 1.5 to 2.5 cm^3 are sacrificed. Details can be found below.
# Tumor volumes are used as the primary indicator of activity of antitumor agents used alone or in combination, and changes in body weights are measured as an indicator of treatment tolerability.
# [2] = system: human KB-8511 epidermoid carcinoma; conditions: for % Body Weight Change / D Body Weight / D Tumor Volume (mm^3): mean ± SEM
# Method: The human epidermal (mouth) carcinoma cell line KB-8511 (a P-gp over-expressing cell line derived from the epidermoid (mouth) KB-31 carcinoma cell line) is obtained from Dr. R. M. Baker, Roswell Park Memorial Institute (Buffalo, N.Y., USA) (for description see Akiyama et al., Somat. Cell. Mol. Genetics 11, 117-126 (1985) and Fojo A., et al., Cancer Res. 45, 3002-3007 (1985)) and is cultured as previously described (Meyer, T., et al., Int. J. Cancer 43 851-856 (1989)).
# as §1, §2
# [3] = system: human estrogen-dependent ZR-75-1 breast tumors; test: Antitumor effect against s.c. transplanted ZR-75-1 breast tumors
# Method: as §1, §2
# [4] = 4 mg/kg, i.v. once on day 14, mean ± SEM
# [5] = 1 mg/kg, i.v. every 7 days, day 47
# [6] = 2 mg/kg, i.v. every 7 days, day 47
# [7] = 4 mg/kg, i.v. every 7 days, day 47
# [8] = 4 mg/kg, i.v. every 14 days, day 47
smiles,measurement,setting,value
C/C(=C\c1csc(C)n1)[C@@H]1C[C@@H]2O[C@]2(C)CCC[C@H](C)[C@H](O)[C@@H](C)C(=O)C(C)(C)[C@@H](O)CC(=O)O1 [epothilone B],Regression,"[1]; 4 mg/kg, i.v. once on day 14",−61%
same,Survival (No. alive/total),"[1]; 4 mg/kg, i.v. once on day 14",8/8
same,T/C,"[1]; 4 mg/kg, i.v. once on day 14",tumor regressions; also recorded: Regression
same,% Body Weight Change,[1]; [4],2 ± 2%
same,D Body Weight,[1]; [4],0.4 ± 0.3 g
same,D Tumor Volume (mm^3),[1]; [4],−97 ± 25 mm^3
same,mortalities due to treatment,[1]; single 4 mg/kg dose,No mortalities due to treatment
same,Regression,"[2]; 1 mg/kg, i.v. once per week",none
same,Survival (No. alive/total),"[2]; 1 mg/kg, i.v. once per week",8/8
same,T/C,"[2]; 1 mg/kg, i.v. once per week, final",81%
same,% Body Weight Change,"[2]; 1 mg/kg, i.v. once per week",12 ± 1%
same,D Body Weight,"[2]; 1 mg/kg, i.v. once per week",2.6 ± 0.3 g
same,D Tumor Volume (mm^3),"[2]; 1 mg/kg, i.v. once per week",1620 ± 290 mm^3
same,Survival (No. alive/total),"[2]; 2 mg/kg, i.v. once per week",8/8
same,T/C,"[2]; 2 mg/kg, i.v. once per week, final",14%
same,% Body Weight Change,"[2]; 2 mg/kg, i.v. once per week",5 ± 2%
same,D Body Weight,"[2]; 2 mg/kg, i.v. once per week",1.1 ± 0.4 g
same,D Tumor Volume (mm^3),"[2]; 2 mg/kg, i.v. once per week",289 ± 204 mm^3
same,mice with undetectable tumors at the end of the experiment,[2]; 2 mg/kg/week,⅛
same,Survival (No. alive/total),"[2]; 4 mg/kg, i.v. once on day 13",8/8
same,T/C,"[2]; 4 mg/kg, i.v. once on day 13, final",24%
same,% Body Weight Change,"[2]; 4 mg/kg, i.v. once on day 13",3 ± 2%
same,D Body Weight,"[2]; 4 mg/kg, i.v. once on day 13",0.6 ± 0.6 g
same,D Tumor Volume (mm^3),"[2]; 4 mg/kg, i.v. once on day 13",484 ± 103 mm^3
same,Regression,"[2]; 4 mg/kg, i.v. once on day 13, transient, day 25 post transplantation",−51%
same,Survival (No. alive/total),"[2]; 4 mg/kg, i.v. once per week",8/8
same,T/C,"[2]; 4 mg/kg, i.v. once per week (days 13, 21 and 27)",Regression
same,% Body Weight Change,"[2]; 4 mg/kg, i.v. once per week",−5±7% and −5 ± 3%
same,D Body Weight,"[2]; 4 mg/kg, i.v. once per week",-1.1 ± 0.4 g
same,D Tumor Volume (mm^3),"[2]; 4 mg/kg, i.v. once per week",−107 ± 14 mm^3
same,mice with undetectable tumors at the end of the experiment,[2]; 4 mg/kg/week,⅝
same,% Body Weight Change,[3]; [5],2 ± 5%
same,Regression,[3]; [5],none
same,Survival (No. alive/total),[3]; [5],4/6
same,T/C (%),[3]; [5],86%
same,Δ Body Weight,[3]; [5],0.3 ± 1.2 g
same,Δ Tumor Volume (mm^3),[3]; [5],393 ± 135 mm^3
same,% Body Weight Change,[3]; [6],−14 ± 6%
same,Regression,[3]; [6],none
same,Survival (No. alive/total),[3]; [6],5/6
same,T/C (%),[3]; [6],40%
same,Δ Body Weight,[3]; [6],-3.5 ± 1.6 g
same,Δ Tumor Volume (mm^3),[3]; [6],227 ± 76 mm^3
same,T/C (%),"[3]; 4 mg/kg, i.v. every 7 days (days 19, 26 and 33), day 47",1%
same,% Body Weight Change,[3]; [7],−5 ± 3%
same,Survival (No. alive/total),[3]; [7],3/6
same,Δ Body Weight,[3]; [7],-1.2 ± 0.6 g
same,Δ Tumor Volume (mm^3),[3]; [7],29 ± 16 mm^3
same,Regression,"[3]; 4 mg/kg, i.v. every 7 days, transient",−8%
same,T/C (%),"[3]; 4 mg/kg, i.v. every 14 days (days 19 and 33), day 47",46%
same,% Body Weight Change,[3]; [8],−7 ± 5%
same,Regression,[3]; [8],none
same,Survival (No. alive/total),[3]; [8],4/6
same,Δ Body Weight,[3]; [8],-1.6 ± 1.1 g
same,Δ Tumor Volume (mm^3),[3]; [8],208 ± 86 mm^3
